Results reported in patent publication US12012636B2, “Pulmonary hypertension biomarker” (NOVARTIS AG, priority 2014, dated 2024).

System: candidate biomarker gene transcripts (Ccl21, Col18a1, Cxcl12, Cxcl13, Dmp1, Frzb) in rat Hy/Su lungs
Test: Candidate biomarker mRNA levels (QPCR) in lung in the hypoxia/Sugen rat model of PH following treatment with Imatinib
Type: in vivo
Method: Sugen (250 mg; SU5416; Sigma-Aldrich®) was dissolved in vehicle (12.5 ml; 0.5% (wt/vol) carboxyl methylcellulose sodium, 0.9% (wt/vol) NaCl, 0.4% (vol/vol) polysorbate, 0.9% (vol/vol) benzyl alcohol in deionized water), sonicated for 15 min and then vortexed. On day 0, animals were anaesthetized, weighed and received Sugen 20 mg/kg by sub-cutaneous injection. […] Control animals remained in room air (21% O2) to serve as normoxic controls for the study. After 2 weeks, all animals were removed from the hypoxia chamber. At week 4, the animals were subjected to echocardiographic measurements under sevoflurane anaesthesia and monitored closely until fully recovered. Animals underwent RV catheterization for measurement of right ventricular pressure (RVP) under a mixture of ketamin and medetomidine anaesthesia. Following euthanasia by Schedule 1, the left lobe of the lung was removed, inflated and fixed in 10% formalin and embedded in paraffin for histological analysis. Lobes of the right lung were snap frozen for transcriptional profiling.
Frozen rat lung samples, collected in TT2 tissue bags (K Bioscience® Cat #520021) were crushed using the Covaris CryoPrep CP02. Total RNA from the crushed lung samples was extracted by RNeasy Mini kit according to the manufacturer's protocol (Qiagen™). Genomic DNA was removed by treatment with DNase I (Turbo DNase kit, Invitrogen). The exact quantification of RNA was determined with a NanoDrop ND-1000 spectrophotometer. RNA quality was assessed by analyzing 18S and 28S rRNAs by microfluidics-based electrophoresis on a 2100 Bioanalyzer (Agilent Technologies, Santa Clara, Calif.).
All animal procedures were conducted as described above.
In this study, following administration of an initial dose of Sugen on day 0 and a period of 14 days in a hypoxia chamber following, rats were administered 100 mg/kg of Imatinib or vehicle control daily for a further two weeks.
Following euthanasia by Schedule 1, the left lobe of the lung was removed, inflated and fixed in 10% formalin and embedded in paraffin for histological analysis, by airway inflation. Tissue sections (3 μm) were stained with antibodies against von Willebrand factor (vWF) and α-smooth muscle actin (α-SMA). Slides were examined using a DMLB and confocal microscope, digital camera, and IM50 imaging software (Leica Microsystems, London, UK). Small pulmonary vessels (10-100 μm diameter indicated by vWF staining) were assessed for degrees of circumferential α-SMA-positive staining indicative of muscularisation. Lobes of the right lung were snap frozen for candidate biomarker mRNA expression measurements. Total RNA was extracted and underwent quality control as mentioned in section above.
cDNA was synthesised using the High Capacity RNA-to-cDNA Kit (Invitrogen) according to the kit manufacturer's protocol. QPCR was performed on an ABI Prism 7900HT sequence detection system (Applied Biosystems, USA), using TaqMan Universal PCR Master Mix (Applied Biosystems). Taqman assays were purchased from Applied Biosystems®. Relative expression was normalised to a combination of 10 different housekeeping genes. Data were analyzed using the SDS RQ Manager, software (Applied Biosystems, version 2.4). Normalised gene expression values for each gene (2^−Δct) were plotted and analysed using a two-way ANOVA in GraphPad Prism 6.02.

[1] = rat Hy/Su lungs, Imatinib 100 mg/kg daily for two weeks vs vehicle, QPCR

Cc1ccc(NC(=O)c2ccc(CN3CCN(C)CC3)cc2)cc1Nc1nccc(-c2cccnc2)n1 [Imatinib]
CCL21 mRNA expression levels in lung samples (day 28, imatinib group vs vehicle treated animals (increased vs naïve controls)): decrease | Ccl21 gene transcript in lung [1]: down-regulated | Col18a1 gene transcript in lung [1]: down-regulated | Cxcl12 gene transcript in lung [1]: down-regulated | Cxcl13 gene transcript in lung [1]: down-regulated | Dmp1 gene transcript in lung [1]: down-regulated | Frzb gene transcript in lung [1]: down-regulated
